Data published in patent US3970703A, “Phenylacetic acid derivatives” (Sumitomo Chemical Company, Limited, priority 1970, dated 1976).
“And” between values parts separate entries of the source, which are not always exact repeats. Identical values can stand only once. Like-named read-outs stand apart in the source and are kept apart here.

What was measured:
housefly adults = format: in vivo
[1] = in words, background; cited from earlier work
house fly adults = experiment: Oil spray test, Campbell's turn table method (Test Examples 1 and 2); conditions: Musca domestica, topical, 24 h, read-out: killing ratio
[2] = insecticide alone, no synergist
[3] = insecticide alone, no synergist (reference 1.0)
[4] = 3,4-dimethylphenyl-N-methylcarbamate + synergist, relative to insecticide alone
[5] = 3,4-dimethylphenyl-N-methylcarbamate + synergist, three batches
[6] = allethrin + 5 times weight of synergist, relative to allethrin alone
[7] = allethrin + 5 times weight of synergist, three batches
[8] = natural pyrethrin + 5 times weight of synergist, relative to natural pyrethrin alone
[9] = natural pyrethrin + 5 times weight of synergist, three batches
[10] = present compound alone, no insecticide
[11] = tetramethrin + 5 times weight of synergist, relative to tetramethrin alone of same batch
[12] = tetramethrin + 5 times weight of synergist, three batches (tetramethrin alone 0.530, 0.520, 0.570)

SMILES: CNC(=O)Oc1ccc(C)c(C)c1 [3,4-Dimethylphenyl-N-methylcarbamate, 3,4-dimethylphenyl-N-methylcarbamate, reference compound]
- LD50 (housefly adults; [2]): ≥ 5 γ/Fly
- Ratio of enhancing the killing effect (housefly adults; [3]): 1.0

SMILES: C=CCC1=C(C)C(OC(=O)C2C(C=C(C)C)C2(C)C)CC1=O (stereo not shown) [Allethrin, reference compound]
- LD50 (housefly adults; [2]): 0.560 γ/Fly and 0.60 γ/Fly and 0.610 γ/Fly
- Ratio of enhancing the killing effect (housefly adults; [3]): 1.0

SMILES: CNC(=O)Oc1cccc2ccccc12 [Carbaryl, reference compound]
- Ratio of enhancing the killing effect (housefly adults; [3]): 1.0

SMILES: CC(C)=CC1C(C(=O)OCc2coc(Cc3ccccc3)c2)C1(C)C (stereo not shown) [Chrysron, 5-benzyl-3-furylmethyl chrysanthemate, reference compound]
- LD50 (housefly adults; in vivo): 0.026 γ/Fly and 0.024 γ/Fly and 0.027 γ/Fly
- Ratio of enhancing the killing effect (housefly adults; [3]): 1.0

SMILES: CCCCC(CC)CN1C(=O)C2C3C=CC(C3)C2C1=O (stereo not shown) [MGK-264, N-(2-ethylhexyl)bicyclo[2,2,1]-hept-5-ene-anhydro-phthalic acid-2,3-dicarboxyimide]
- synergistic effect on allethrin compared with natural pyrethrin [1]: more excellent synergistic effect on allethrin than that on natural pyrethrin

SMILES: CCCCOCCOCCOCc1cc2c(cc1CCC)OCO2 [Piperonyl butoxide, α-[2-(butoxyethoxy)-ethoxy]-4,5-methylene-dioxy-2-propyltoluene]
- synergistic effect on allethrin and other synthetic pyrethroids [1]: somewhat inferior
- synergistic effect on natural pyrethrin [1]: prominent synergistic effect

SMILES: C#CCOC(=O)C(CCC)(OC)c1ccccc1 (stereo not drawn) [Present compound (1), Propargyl α-(n-propyl)-α-methoxyphenylacetate]
- Ratio of enhancing the killing effect (housefly adults; [4]): ≥ 18
- LD50 (housefly adults; [5]): 0.278 γ/Fly
- Ratio of enhancing the killing effect (housefly adults; [6]): 6.6
- LD50 (housefly adults; [7]): 0.085 γ/Fly
- Ratio of enhancing the killing effect (housefly adults; [8]): 4.9
- LD50 (housefly adults; [9]): 0.082 γ/Fly
- LD50 (housefly adults; [10]): ≥ 2 γ/Fly
- Ratio of enhancing the killing effect (housefly adults; [11]): 7.8
- LD50 (housefly adults; [12]): 0.068 γ/Fly

SMILES: C#CCOC(=O)C(OC)(c1ccccc1)C(C)C (stereo not drawn) [Present compound (2), Propargyl α-(iso-propyl)-α-methoxyphenylacetate]
- LD50 (housefly adults; [10]): ≥ 2 γ/Fly
- Ratio of enhancing the killing effect (housefly adults; [11]): 8.7
- LD50 (housefly adults; [12]): 0.061 γ/Fly

SMILES: C#CCOC(=O)C(CC=C)(OC)c1ccccc1 (stereo not drawn) [Present compound (3), Propargyl α-allyl-α-methoxyphenylacetate]
- Ratio of enhancing the killing effect (housefly adults; [4]): ≥ 18
- LD50 (housefly adults; [5]): 0.273 γ/Fly
- Ratio of enhancing the killing effect (housefly adults; [6]): 7.4
- LD50 (housefly adults; [7]): 0.076 γ/Fly
- Ratio of enhancing the killing effect (housefly adults; [8]): 5.1
- LD50 (housefly adults; [9]): 0.079 γ/Fly
- Ratio of enhancing the killing effect (housefly adults; [11]): 8.3
- LD50 (housefly adults; [12]): 0.064 γ/Fly

SMILES: C#CCOC(=O)C(CCC=C)(OC)c1ccccc1 (stereo not drawn) [Present compound (4), Propargyl α-butenyl-α-methoxyphenylacetate]
- Ratio of enhancing the killing effect (housefly adults; [11]): 7.5
- LD50 (housefly adults; [12]): 0.071 γ/Fly

SMILES: C#CCOC(=O)C(CC=C)(OCC)c1ccccc1 (stereo not drawn) [Present compound (5), Propargyl α-allyl-α-ethoxyphenylacetate]
- Ratio of enhancing the killing effect (housefly adults; [4]): ≥ 21
- LD50 (housefly adults; [5]): 0.238 γ/Fly
- Ratio of enhancing the killing effect (housefly adults; [6]): 9.8
- LD50 (housefly adults; [7]): 0.057 γ/Fly
- Ratio of enhancing the killing effect (housefly adults; [8]): 5.6
- LD50 (housefly adults; [9]): 0.071 γ/Fly
- Ratio of enhancing the killing effect (housefly adults; [11]): 12.5
- LD50 (housefly adults; [12]): 0.042 γ/Fly

SMILES: C#CCOC(=O)C(CC(C)C)(OC)c1ccccc1 (stereo not drawn) [Present compound (6), Propargyl α-(iso-butyl)-α-methoxyphenylacetate]
- Ratio of enhancing the killing effect (housefly adults; [11]): 8.0
- LD50 (housefly adults; [12]): 0.066 γ/Fly

SMILES: C#CCOC(=O)C(CC=C)(OCCC)c1ccccc1 (stereo not drawn) [Present compound (7), Propargyl α-allyl-α-(n-propyloxy)-phenylacetate]
- Ratio of enhancing the killing effect (housefly adults; [11]): 7.9
- LD50 (housefly adults; [12]): 0.067 γ/Fly

SMILES: C#CCOC(=O)C(CCCCCC)(OC)c1ccccc1 (stereo not drawn) [Present compound (8), Propargyl α-(n-hexyl)-α-methoxyphenylacetate]
- Ratio of enhancing the killing effect (housefly adults; [11]): 4.5
- LD50 (housefly adults; [12]): 0.128 γ/Fly

SMILES: C#CCOC(=O)C(OC)(c1ccccc1)C1CCCCC1 (stereo not drawn) [Present compound (9), Propargyl α-cyclohexyl-α-methoxyphenylacetate]
- Ratio of enhancing the killing effect (housefly adults; [11]): 4.8
- LD50 (housefly adults; [12]): 0.111 γ/Fly

SMILES: C#CCCOC(=O)C(CC=C)(OC)c1ccccc1 (stereo not shown) [Present compound (10)]
- LD50 (housefly adults; [10]): ≥ 2 γ/Fly
- Ratio of enhancing the killing effect (housefly adults; [11]): 6.9
- LD50 (housefly adults; [12]): 0.077 γ/Fly

SMILES: C#CCOC(=O)C(Cc1ccccc1)(OC)c1ccccc1 (stereo not drawn) [Present compound (11), Propargyl α-benzyl-α-methoxyphenylacetate]
- Ratio of enhancing the killing effect (housefly adults; [4]): ≥ 24
- LD50 (housefly adults; [5]): 0.21 γ/Fly
- Ratio of enhancing the killing effect (housefly adults; [6]): 10.0
- LD50 (housefly adults; [7]): 0.060 γ/Fly
- Ratio of enhancing the killing effect (housefly adults; [8]): 6.5
- LD50 (housefly adults; [9]): 0.054 γ/Fly
- Ratio of enhancing the killing effect (housefly adults; [11]): 11.3
- LD50 (housefly adults; [12]): 0.046 γ/Fly

SMILES: C#CCOC(=O)C(Cc1ccccc1)(OCC)c1ccccc1 (stereo not drawn) [Present compound (12), Propargyl α-benzyl-α-ethoxyphenylacetate]
- Ratio of enhancing the killing effect (housefly adults; [11]): 10.0
- LD50 (housefly adults; [12]): 0.052 γ/Fly

SMILES: C=CCOC(=O)C(Cc1ccccc1)(OC)c1ccccc1 (stereo not drawn) [Present compound (13), Allyl α-benzyl-α-methoxyphenylacetate]
- Ratio of enhancing the killing effect (housefly adults; [11]): 10.4
- LD50 (housefly adults; [12]): 0.050 γ/Fly

SMILES: C#CCOC(=O)C(OC)(c1ccccc1)c1cccs1 (stereo not drawn) [Present compound (14), Propargyl α-(2-thienyl)-α-methoxyphenylacetate]
- Ratio of enhancing the killing effect (housefly adults; [11]): 8.1
- LD50 (housefly adults; [12]): 0.064 γ/Fly

SMILES: C#CCC(OC)(C(=O)OCC=C)c1ccccc1 (stereo not drawn) [Present compound (15), Allyl α-propargyl-α-methoxyphenylacetate]
- Ratio of enhancing the killing effect (housefly adults; [11]): 8.7
- LD50 (housefly adults; [12]): 0.060 γ/Fly

SMILES: C#CCCOC(=O)C(OC)(c1ccccc1)c1ccccc1 [Present compound (16)]
- Ratio of enhancing the killing effect (housefly adults; [4]): ≥ 20
- LD50 (housefly adults; [5]): 0.25 γ/Fly
- Ratio of enhancing the killing effect (housefly adults; [6]): 7.2
- LD50 (housefly adults; [7]): 0.083 γ/Fly
- Ratio of enhancing the killing effect (housefly adults; [8]): 5.5
- LD50 (housefly adults; [9]): 0.064 γ/Fly
- Ratio of enhancing the killing effect (housefly adults; [11]): 9.5
- LD50 (housefly adults; [12]): 0.055 γ/Fly

SMILES: C#CCCCCOC(=O)C(CCC)(OCC)c1ccccc1 (stereo not shown) [Present compound (17)]
- Ratio of enhancing the killing effect (housefly adults; [11]): 8.3
- LD50 (housefly adults; [12]): 0.063 γ/Fly

SMILES: C#CCCOC(=O)C(OCCC#C)(c1ccccc1)c1ccccc1 [Present compound (18)]
- Ratio of enhancing the killing effect (housefly adults; [11]): 11.1
- LD50 (housefly adults; [12]): 0.047 γ/Fly

SMILES: C#CCOCC(CCC)(OC)c1ccccc1 (stereo not drawn) [Present compound (19), Propargyl α-(n-propyl)-α-methoxyphenethyl ether]
- Ratio of enhancing the killing effect (housefly adults; [11]): 8.5
- LD50 (housefly adults; [12]): 0.067 γ/Fly

SMILES: C#CCOCC(CC=C)(OC)c1ccccc1 (stereo not shown) [Present compound (20)]
- Ratio of enhancing the killing effect (housefly adults; [4]): ≥ 19
- LD50 (housefly adults; [5]): 0.252 γ/Fly
- Ratio of enhancing the killing effect (housefly adults; [6]): 9.8
- LD50 (housefly adults; [7]): 0.062 γ/Fly
- Ratio of enhancing the killing effect (housefly adults; [8]): 7.0
- LD50 (housefly adults; [9]): 0.056 γ/Fly
- Ratio of enhancing the killing effect (housefly adults; [11]): 10.8
- LD50 (housefly adults; [12]): 0.053 γ/Fly

SMILES: C#CCOCC(CC=C)(OCC)c1ccccc1 (stereo not drawn) [Present compound (21), Propargyl α-allyl-α-ethoxyphenethyl ether]
- Ratio of enhancing the killing effect (housefly adults; [11]): 9.5
- LD50 (housefly adults; [12]): 0.060 γ/Fly

SMILES: C#CCOCC(CC(C)C)(OCC=C)c1ccccc1 (stereo not drawn) [Present compound (22), Propargyl α-(iso-butyl)-α-allyloxyphenethyl ether]
- Ratio of enhancing the killing effect (housefly adults; [11]): 10.2
- LD50 (housefly adults; [12]): 0.056 γ/Fly

SMILES: C#CCCOCC(CCC)(OC)c1ccccc1 (stereo not shown) [Present compound (26)]
- Ratio of enhancing the killing effect (housefly adults; [11]): 7.0
- LD50 (housefly adults; [12]): 0.081 γ/Fly

SMILES: C#CCCCCOCC(CCC)(OC)c1ccccc1 (stereo not shown) [Present compound (27)]
- Ratio of enhancing the killing effect (housefly adults; [11]): 7.0
- LD50 (housefly adults; [12]): 0.081 γ/Fly

SMILES: CC(C)=CC1C(C(=O)OCN2C(=O)C3=C(CCCC3)C2=O)C1(C)C (stereo not shown) [Tetramethrin, N-chrysanthemoxymethyl-3,4,5,6-tetrahydrophthalimide, reference compound]
- LD50 (housefly adults; [2]): 0.530 γ/Fly and 0.520 γ/Fly and 0.570 γ/Fly
- Ratio of enhancing the killing effect (housefly adults; [3]): 1.0
- mortality at 0.05 % (house fly adults): 52%
